Measurements from ChEMBL document CHEMBL4130444, “1,4-Naphthoquinones as inhibitors of Itch, a HECT domain-E3 ligase, and tumor growth suppressors in multiple myeloma” (Eur J Med Chem, 2017).
pIC50: −log10 of the molar value. Active and inactive are the calls of the source. No cut-off for these calls is given here.

How the values were obtained:
HCT-116 = test: Antiproliferative activity against human HCT116 cells incubated for 48 hrs by SRB assay; assay type: functional; details: HCT-116, 48 h
MDA-MB-231 = test: Antiproliferative activity against human MDA-MB-231 cells incubated for 48 hrs by SRB assay; assay type: functional; details: MDA-MB-231, 48 h
[1] = Antiproliferative activity against human hepatocytes incubated for 48 hrs by SRB assay; assay type: cell-based, Hepatocyte
[2] = Antiproliferative activity against HUVEC incubated for 48 hrs by SRB assay; assay type: cell-based; details: human, HUVEC cells
[3] = Antiproliferative activity against NHDF incubated for 48 hrs by SRB assay; assay type: cell-based; details: human, NHDF cells
ASPC1 = test: Antiproliferative activity against human AsPC1 cells incubated for 48 hrs by SRB assay; assay type: functional; details: ASPC1, 48 h
BXPC-3 = test: Antiproliferative activity against human BxPC3 cells incubated for 48 hrs by SRB assay; assay type: functional; details: BXPC-3, 48 h
HT-29 = test: Antiproliferative activity against human HT-29 cells incubated for 48 hrs by SRB assay; assay type: functional; details: HT-29, 48 h
REH = test: Antiproliferative activity against human REH cells incubated for 48 hrs by SRB assay; assay type: functional
MCF7 = test: Antiproliferative activity against human MCF7 cells incubated for 48 hrs by SRB assay; assay type: functional; details: MCF7, 48 h
SK-MEL-5 = test: Antiproliferative activity against human SK-MEL-5 cells incubated for 48 hrs by SRB assay; assay type: functional; details: SK-MEL-5, 48 h
[4] = Antiproliferative activity against human ZR-75 cells incubated for 48 hrs by SRB assay; assay type: functional; details: ZR75, 48 h
KB = test: Antiproliferative activity against human KB cells incubated for 48 hrs by SRB assay; assay type: functional
Ramos = test: Antiproliferative activity against human Ramos cells incubated for 48 hrs by SRB assay; assay type: functional
[5] = Antiproliferative activity against human 33HJ-JA1 cells incubated for 48 hrs by SRB assay; assay type: functional
A549 = test: Antiproliferative activity against human A549 cells incubated for 48 hrs by SRB assay; assay type: functional; details: A549, 48 h
NCI-H460 = test: Antiproliferative activity against human NCI-H460 cells incubated for 48 hrs by SRB assay; assay type: functional; details: NCI-H460, 48 h
PC-6 = test: Antiproliferative activity against human PC6 cells incubated for 48 hrs by SRB assay; assay type: functional; details: PC-6, 48 h
OVCAR-4 = test: Antiproliferative activity against human OVCAR4 cells incubated for 48 hrs by SRB assay; assay type: functional; details: OVCAR-4, 48 h
OVCAR-3 = test: Antiproliferative activity against human OVCAR3 cells incubated for 48 hrs by SRB assay; assay type: functional; details: OVCAR-3, 48 h
PC-3 = test: Antiproliferative activity against human PC3 cells incubated for 48 hrs by SRB assay; assay type: functional; details: PC-3, 48 h
[6] = target: E3 ubiquitin-protein ligase Itchy homolog (Homo sapiens) (UniProt Q96J02); test: Inhibition of Itch (unknown origin) assessed as reduction in Itch-mediated ubiquitination in presence of E1 enzyme, E2 enzyme and ATP incubated for 20 mins by SDS-PAGE method
E3 ubiquitin-protein ligase Itchy homolog (Homo sapiens), sequence (Q96J02 whole entry): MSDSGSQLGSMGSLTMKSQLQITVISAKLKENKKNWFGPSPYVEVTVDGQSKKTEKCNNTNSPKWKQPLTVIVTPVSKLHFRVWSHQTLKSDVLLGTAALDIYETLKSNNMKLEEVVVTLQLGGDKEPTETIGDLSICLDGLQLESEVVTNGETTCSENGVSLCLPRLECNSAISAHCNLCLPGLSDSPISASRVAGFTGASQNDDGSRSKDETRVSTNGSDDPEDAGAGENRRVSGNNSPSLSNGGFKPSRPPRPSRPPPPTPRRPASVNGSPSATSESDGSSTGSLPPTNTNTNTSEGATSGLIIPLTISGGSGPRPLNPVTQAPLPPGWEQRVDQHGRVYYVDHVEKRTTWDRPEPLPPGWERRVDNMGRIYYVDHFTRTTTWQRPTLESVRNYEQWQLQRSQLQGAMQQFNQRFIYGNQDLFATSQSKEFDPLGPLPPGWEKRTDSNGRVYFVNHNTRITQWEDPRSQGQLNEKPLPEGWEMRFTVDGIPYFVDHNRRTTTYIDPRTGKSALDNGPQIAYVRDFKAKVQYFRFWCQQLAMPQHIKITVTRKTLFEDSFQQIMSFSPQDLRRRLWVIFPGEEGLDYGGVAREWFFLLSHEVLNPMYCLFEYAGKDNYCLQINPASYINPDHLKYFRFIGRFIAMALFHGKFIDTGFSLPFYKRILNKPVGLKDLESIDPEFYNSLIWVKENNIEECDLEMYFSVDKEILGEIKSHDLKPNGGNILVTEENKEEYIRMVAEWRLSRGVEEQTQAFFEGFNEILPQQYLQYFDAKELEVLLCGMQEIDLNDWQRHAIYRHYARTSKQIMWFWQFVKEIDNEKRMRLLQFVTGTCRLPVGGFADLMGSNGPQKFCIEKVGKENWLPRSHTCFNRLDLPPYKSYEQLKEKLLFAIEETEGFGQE

RPMI-8226 [7] = test: Antiproliferative activity against human RPMI8226 cells incubated for 48 hrs by SRB assay; assay type: functional, cell-based; details: RPMI-8226, 48 h
RPMI-8226 [8] = test: Reduction of Itch protein expression in human RPMI8226 cells at 10 uM by Western blot; assay type: functional, cell-based
RPMI-8226 [9] = test: Antitumor activity against human RPMI8226 cells xenografted in SCID nude mouse assessed as inhibition of tumor growth at 25 mg/kg, po dosed daily for 45 days; assay type: functional; details: RPMI-8226, po, 1080 h, read-out: TGI
RPMI-8226 [10] = test: Antitumor activity against human RPMI8226 cells xenografted in SCID nude mouse assessed as inhibition of tumor growth at 50 mg/kg, po dosed daily for 45 days; assay type: functional; details: RPMI-8226, po, 1080 h, read-out: TGI
Mus musculus [11] = test: Toxicity in human RPMI8226 cells xenografted SCID nude mouse assessed as effect on body weight at 25 mg/kg, po dosed daily for 45 days; assay type: organism-based; details: in vivo, 1080 h
Mus musculus [12] = test: Toxicity in human RPMI8226 cells xenografted SCID nude mouse assessed as effect on body weight at 50 mg/kg, po dosed daily for 45 days; assay type: organism-based; details: in vivo, 1080 h
Mus musculus [13] = test: Toxicity in human RPMI8226 cells xenografted SCID nude mouse assessed as induction of adverse events at 25 mg/kg, po dosed daily for 45 days; assay type: organism-based; details: in vivo, 1080 h
Mus musculus [14] = test: Toxicity in human RPMI8226 cells xenografted SCID nude mouse assessed as induction of adverse events at 50 mg/kg, po dosed daily for 45 days; assay type: organism-based; details: in vivo, 1080 h
Homo sapiens [15] = organism: Homo sapiens; test: Inhibition of UBE1/UbcH3/SCFSkp2/Cks1/p27 (unknown origin) assessed as protein activity at […] by electrochemiluminescence based ubiquitin profiler panel assay; design: scale not given: the % may be the effect or the level left
Homo sapiens [16] = organism: Homo sapiens; test: Inhibition of UBE1/UbcH3/SCFFbw7/Cyclin E1 (unknown origin) assessed as protein activity at […] by electrochemiluminescence based ubiquitin profiler panel assay; design: scale not given: the % may be the effect or the level left

GI50 (HCT-116): 4.3 µM
GI50 (MDA-MB-231): 2900 nM
GI50 (ASPC1): 4.6 µM
GI50 (BXPC-3): 1200 nM
GI50 (HT-29): 3.8 µM
GI50 (MCF7): 900 nM
GI50 (SK-MEL-5): 210 nM
GI50 (KB): 4 µM
GI50 (Ramos): 890 nM
GI50 (A549): > 5 µM
GI50 (NCI-H460): 2900 nM
GI50 (OVCAR-4): 1400 nM
GI50 (OVCAR-3): 1900 nM
GI50 (PC-3): 2500 nM
inhibition [6]: Dose-dependent effect
pIC50 (RPMI-8226 [7]): 5.59
Activity (Homo sapiens [15]): 85%
Activity (Homo sapiens [16]): 104%
Compound: O=C(Nc1ccncc1)c1ccc(CNC2=C(Cl)C(=O)c3ccccc3C2=O)cc1
GI50 at 48 h [1]: 30 µM
GI50 at 48 h [2]: 16 µM
GI50 at 48 h [3]: 6.3 µM
GI50 (REH): 2800 nM
GI50 [4]: > 5 µM
GI50 [5]: 1900 nM
GI50 (PC-6): 1800 nM
Activity (RPMI-8226 [8]): Active
inhibition in vivo at 25 mg/kg (RPMI-8226 [9]): 98.3%
inhibition in vivo at 50 mg/kg (RPMI-8226 [10]): 100%
Activity (Mus musculus [11]): Non-Toxic
Activity (Mus musculus [12]): Non-Toxic
Activity (Mus musculus [13]): Non-Toxic
Activity (Mus musculus [14]): Non-Toxic
